US10328069B2, “Phosphatidylinositol 3-kinase inhibitors for the treatment of lymphoproliferative malignancies” (Exelixis, Inc., priority 2011, dated 2019)
Marks after values point to notes of the source that are not given here.

Assays:
[1] = test system: downstream targets of PI3K, including pAKT and pEBP1; assay: Phosphorylation of downstream targets of PI3K in vitro and in vivo
xenograft tumor = assay: Preclinical xenograft model studies: tumor growth; type: in vivo; details: preclinical xenograft models, well-tolerated doses
[2] = test system: downstream effectors of PI3K; assay: Preclinical xenograft model studies: phosphorylation of downstream effectors of PI3K; type: in vivo; details: preclinical xenograft models, well-tolerated doses
[3] = Phase 1 trial, lymphoma/CLL expansion cohort: plasma pharmacokinetics; type: in vivo, human; details: 600 mg oral daily, cycle 1, eight patients
Text: The secondary objectives were to determine (a) the plasma pharmacokinetics of Compound A; and (b) the pharmacodynamic effects of Compound A on tumor tissue.
There was inter-patient variability, and the geometric mean was 7.6 fold.

[4] = Phase 1 trial, lymphoma/CLL expansion cohort: safety and tolerability; type: in vivo, human
class I PI3K isoform γ = class I PI3K isoform γ (Homo sapiens, UniProt P48736); details: read-out: IC50 PI3K γ
Chain of class I PI3K isoform γ (P48736 whole entry, canonical isoform): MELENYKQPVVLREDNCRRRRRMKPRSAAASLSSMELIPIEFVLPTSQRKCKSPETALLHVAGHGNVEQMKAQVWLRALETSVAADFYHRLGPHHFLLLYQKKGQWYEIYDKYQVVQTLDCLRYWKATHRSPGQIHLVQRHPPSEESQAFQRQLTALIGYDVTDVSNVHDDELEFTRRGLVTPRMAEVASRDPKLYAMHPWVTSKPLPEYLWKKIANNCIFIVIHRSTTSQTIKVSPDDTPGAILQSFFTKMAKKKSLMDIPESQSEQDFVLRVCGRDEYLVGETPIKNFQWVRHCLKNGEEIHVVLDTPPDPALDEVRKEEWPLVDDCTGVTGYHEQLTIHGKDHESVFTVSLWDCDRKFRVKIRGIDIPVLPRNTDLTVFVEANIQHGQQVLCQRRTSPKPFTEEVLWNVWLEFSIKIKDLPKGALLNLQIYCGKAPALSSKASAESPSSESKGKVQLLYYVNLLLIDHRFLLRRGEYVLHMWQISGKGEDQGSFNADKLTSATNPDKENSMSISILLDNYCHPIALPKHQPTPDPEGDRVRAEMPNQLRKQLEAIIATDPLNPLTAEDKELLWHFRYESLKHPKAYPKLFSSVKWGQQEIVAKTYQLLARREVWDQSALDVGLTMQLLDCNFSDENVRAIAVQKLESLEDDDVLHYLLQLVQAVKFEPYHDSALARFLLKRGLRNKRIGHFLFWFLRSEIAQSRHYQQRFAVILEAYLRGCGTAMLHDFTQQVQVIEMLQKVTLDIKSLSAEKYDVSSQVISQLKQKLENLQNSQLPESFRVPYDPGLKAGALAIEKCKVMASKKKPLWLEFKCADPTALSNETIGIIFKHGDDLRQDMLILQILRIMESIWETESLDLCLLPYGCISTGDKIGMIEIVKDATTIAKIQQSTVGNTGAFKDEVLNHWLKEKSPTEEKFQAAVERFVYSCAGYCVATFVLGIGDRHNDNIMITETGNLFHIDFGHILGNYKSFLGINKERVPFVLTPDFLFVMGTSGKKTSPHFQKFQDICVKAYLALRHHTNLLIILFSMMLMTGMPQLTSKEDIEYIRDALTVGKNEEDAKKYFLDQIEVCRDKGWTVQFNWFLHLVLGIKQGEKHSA

class I PI3K isoform β = class I PI3K isoform β (Homo sapiens, UniProt P42338); details: read-out: IC50 PI3K β
Chain of class I PI3K isoform β (P42338 whole entry, canonical isoform): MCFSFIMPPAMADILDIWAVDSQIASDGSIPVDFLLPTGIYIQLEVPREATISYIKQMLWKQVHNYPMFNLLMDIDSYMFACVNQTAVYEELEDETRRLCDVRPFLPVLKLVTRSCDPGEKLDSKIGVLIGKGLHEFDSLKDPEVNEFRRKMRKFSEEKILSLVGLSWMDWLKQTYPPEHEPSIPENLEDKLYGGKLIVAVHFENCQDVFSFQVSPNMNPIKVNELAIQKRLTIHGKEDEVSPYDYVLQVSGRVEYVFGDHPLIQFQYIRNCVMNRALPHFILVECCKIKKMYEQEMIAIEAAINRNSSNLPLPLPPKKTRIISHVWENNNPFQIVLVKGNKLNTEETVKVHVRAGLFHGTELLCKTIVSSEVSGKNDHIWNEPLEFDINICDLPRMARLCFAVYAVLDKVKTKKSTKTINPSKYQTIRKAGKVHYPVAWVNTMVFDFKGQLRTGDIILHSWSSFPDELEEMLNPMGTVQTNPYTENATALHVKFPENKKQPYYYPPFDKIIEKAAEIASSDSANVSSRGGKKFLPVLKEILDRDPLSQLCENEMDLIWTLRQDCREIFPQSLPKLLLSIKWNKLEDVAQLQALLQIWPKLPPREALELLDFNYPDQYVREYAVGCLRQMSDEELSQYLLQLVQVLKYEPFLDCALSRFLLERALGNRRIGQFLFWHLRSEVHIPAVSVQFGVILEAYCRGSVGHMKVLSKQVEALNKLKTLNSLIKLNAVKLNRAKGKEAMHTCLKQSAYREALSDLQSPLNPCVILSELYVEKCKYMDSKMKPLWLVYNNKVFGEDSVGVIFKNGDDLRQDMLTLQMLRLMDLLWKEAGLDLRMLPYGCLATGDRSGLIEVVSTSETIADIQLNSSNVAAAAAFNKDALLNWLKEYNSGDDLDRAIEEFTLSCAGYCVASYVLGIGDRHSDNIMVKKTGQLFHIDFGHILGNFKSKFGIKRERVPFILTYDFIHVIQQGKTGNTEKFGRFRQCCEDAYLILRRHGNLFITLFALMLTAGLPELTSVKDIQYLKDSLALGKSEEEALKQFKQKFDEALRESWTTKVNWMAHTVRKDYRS
Chain of class I PI3K isoform β (P27986 whole entry partner, canonical isoform): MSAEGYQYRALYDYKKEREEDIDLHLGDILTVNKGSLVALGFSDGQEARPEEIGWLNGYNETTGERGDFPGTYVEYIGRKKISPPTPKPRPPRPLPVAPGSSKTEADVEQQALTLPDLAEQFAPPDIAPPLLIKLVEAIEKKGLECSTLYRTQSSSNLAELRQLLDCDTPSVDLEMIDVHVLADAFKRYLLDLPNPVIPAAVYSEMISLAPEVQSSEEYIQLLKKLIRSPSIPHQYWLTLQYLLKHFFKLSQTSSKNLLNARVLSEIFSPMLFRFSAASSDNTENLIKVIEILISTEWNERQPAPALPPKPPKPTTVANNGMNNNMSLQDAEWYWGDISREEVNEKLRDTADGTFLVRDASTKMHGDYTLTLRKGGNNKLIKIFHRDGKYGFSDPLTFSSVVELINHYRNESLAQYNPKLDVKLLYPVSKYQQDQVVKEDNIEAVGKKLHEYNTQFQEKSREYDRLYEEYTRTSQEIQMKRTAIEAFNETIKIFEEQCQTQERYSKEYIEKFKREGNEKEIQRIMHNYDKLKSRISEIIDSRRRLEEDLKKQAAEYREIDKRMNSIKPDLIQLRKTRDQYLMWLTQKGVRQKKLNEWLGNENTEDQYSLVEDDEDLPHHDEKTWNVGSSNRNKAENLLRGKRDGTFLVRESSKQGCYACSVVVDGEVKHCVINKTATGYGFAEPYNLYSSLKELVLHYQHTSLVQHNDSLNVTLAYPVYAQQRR

mTOR = mTOR (Homo sapiens, UniProt P42345); details: read-out: IC50 mTOR
[5] = Phase 1 study in solid tumors: maximum tolerated dose and dose-limiting toxicities; type: in vivo
Protocol: (§1) The maximum tolerated dose (MTD) was defined as 600 mg (capsule) once daily (QD) on either a 21/7 (administered continuously for 21 days followed by 7 days rest) or a continuous daily dosing schedule. […] A dose-escalation study of a tablet formulation is ongoing. Ten additional patients have been enrolled in the expansion cohort to better define the activity of Compound A, and further studies are warranted.

[6] = test system: relapsed/refractory lymphoma and CLL; assay: Phase 1 trial, lymphoma/CLL expansion cohort: best response; type: in vivo, human
Protocol: As part of a phase 1 single agent study in solid tumors, we administered Compound A to a dedicated expansion cohort of patients with relapsed/refractory lymphoma and CLL. The drug was administered orally daily, with continuous dosing in monthly cycles. A total of 15 patients were enrolled at three centers. An initial cohort of 3 patients was enrolled, followed by a safety review, with subsequent enrollment of the remaining 12 subjects. The median age of the patients was 66 years (range 28-81), 40% were male and 60% female.
This was a Phase 1, open-label, non-randomized trial of Compound A given orally as a single agent in subjects with lymphoma.
The key eligibility include the following: • Histologically confirmed diagnosis of relapsed or refractory lymphoma • Measureable disease • Adequate bone marrow function defined as: • ANC≥1000/mm^3 (CLL with ALC≥100,000/mm^3 required to have ANC≥500/mm^3) • Platelets≥30,000/mm^3 • Hemoglobin≥8 g/dL • Archival or fresh tumor tissue • No prior therapy with a selective PI3K inhibitor • Written informed consent. Results

class I PI3K isoform δ = class I PI3K isoform δ (Homo sapiens, UniProt O00329); details: read-out: IC50 PI3K δ
Chain of class I PI3K isoform δ (O00329 whole entry, canonical isoform): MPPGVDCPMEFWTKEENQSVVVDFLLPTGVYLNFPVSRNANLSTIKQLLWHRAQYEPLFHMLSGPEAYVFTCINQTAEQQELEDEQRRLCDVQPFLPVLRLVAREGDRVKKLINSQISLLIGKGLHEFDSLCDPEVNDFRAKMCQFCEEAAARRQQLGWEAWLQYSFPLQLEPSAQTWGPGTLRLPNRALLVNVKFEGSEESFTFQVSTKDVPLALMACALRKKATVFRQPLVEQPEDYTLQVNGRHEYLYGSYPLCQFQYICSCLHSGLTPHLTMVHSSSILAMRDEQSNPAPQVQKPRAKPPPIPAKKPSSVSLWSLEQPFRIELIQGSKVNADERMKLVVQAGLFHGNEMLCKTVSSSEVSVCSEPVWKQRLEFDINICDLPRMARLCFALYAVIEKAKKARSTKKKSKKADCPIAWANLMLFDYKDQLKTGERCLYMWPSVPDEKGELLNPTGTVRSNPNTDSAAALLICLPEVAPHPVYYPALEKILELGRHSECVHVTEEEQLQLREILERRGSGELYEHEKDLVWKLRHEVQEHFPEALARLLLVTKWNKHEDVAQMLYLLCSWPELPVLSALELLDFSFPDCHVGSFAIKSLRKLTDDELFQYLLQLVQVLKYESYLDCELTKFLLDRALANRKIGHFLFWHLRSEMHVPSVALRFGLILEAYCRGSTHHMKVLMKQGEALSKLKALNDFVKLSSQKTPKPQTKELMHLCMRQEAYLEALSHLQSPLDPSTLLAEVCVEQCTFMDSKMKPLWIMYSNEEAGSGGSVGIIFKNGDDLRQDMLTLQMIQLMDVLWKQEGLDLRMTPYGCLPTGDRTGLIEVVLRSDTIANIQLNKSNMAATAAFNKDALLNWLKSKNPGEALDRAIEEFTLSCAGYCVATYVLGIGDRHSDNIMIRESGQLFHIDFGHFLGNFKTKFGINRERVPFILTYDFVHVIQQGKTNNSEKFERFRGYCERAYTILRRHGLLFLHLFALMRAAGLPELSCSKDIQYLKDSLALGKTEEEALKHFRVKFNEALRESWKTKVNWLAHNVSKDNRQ
Chain of class I PI3K isoform δ (P27986 whole entry partner, canonical isoform): as the sequence (P27986 whole entry partner, canonical isoform) above

PI3K pathway = assay: Phase 1 study in patients with solid tumors: pharmacodynamics in surrogate and tumor tissue; type: in vivo, human
Protocol: as §1

[7] = nineteen subjects, 600 mg capsule daily
[8] = nineteen subjects, unrelated to study drug
[9] = Hodgkin Lymphoma, n = 2 evaluated

With `COc1ccc(Cl)c(Nc2nc3ccccc3nc2NS(=O)(=O)c2cccc(NC(=O)C(C)(C)N)c2)c1` [Compound A, N-(3-{[(3-{[2-chloro-5-(methoxy)phenyl]amino}quinoxalin-2-yl)amino]sulfonyl}phenyl)-2-methylalaninamide] the “phosphorylation of downstream targets of PI3K, including pAKT and pEBP1” value [1] was “inhibits phosphorylation”, the tumor growth (xenograft tumor) was “inhibited tumor growth” and the “phosphorylation of downstream effectors of PI3K” value [2] was “inhibited phosphorylation of downstream effectors of PI3K”. For the same compound, the “geometric mean accumulation (AUC) on day 28” value [3] was 7.6 fold, the “mean (CV %) accumulation (AUC) on day 28” value ([3]; CV 88.1%) was “approximately 11.2 fold” and the “grade 3-4 thrombocytopenia” value ([4]; 1/15 patients, oral daily continuous dosing) was 6.7%. For the same compound, the “hyperglycemia, grade 1-2 event” value ([4]; 1 of 15 patients) was 6.7%, the “hyperglycemia, grade 3-4 event” value ([4]; 1 of 15 patients) was 6.7% and the “grade 3-4 neutropenia” value ([4]; 4/15 patients, oral daily continuous dosing) was 26.7%. For the same compound, the “tolerability in patients with lymphoma and CLL” value ([4]; in vivo) was “well-tolerated”, the “Patients requiring dose modification due to toxicity: Hyperglycemia” value ([4]; nineteen subjects) was 1 (5) n (%) and the “Patients requiring dose modification due to toxicity: Neutropenia” value ([4]; nineteen subjects) was 2 (11) n (%). For the same compound, the “Patients requiring dose modification due to toxicity: Rash” value ([4]; nineteen subjects) was 1 (5) n (%), the “Abdominal Pain, All Adverse Events, All Grades” value [4, 7] was 4 (21) n (%) and the “Abdominal Pain, All Adverse Events, Grade ≥3” value [4, 7] was 1 (5) n (%). The “Abdominal Pain, Related Adverse Events, All Grades” value [4, 7] was 2 (11) n (%), the “Abdominal Pain, Related Adverse Events, Grade ≥3” value [4, 7] was 0 n (%) and the “Anemia, All Adverse Events, All Grades” value [4, 7] was 4 (21) n (%). The “Anemia, All Adverse Events, Grade ≥3” value [4, 7] was 3 (16) n (%), the “Anemia, Related Adverse Events, All Grades” value [4, 7] was 1 (5) n (%) and the “Anemia, Related Adverse Events, Grade ≥3” value [4, 7] was 0 n (%). For the same compound, the “Cough, All Adverse Events, All Grades” value [4, 7] was 6 (32) n (%), the “Cough, All Adverse Events, Grade ≥3” value [4, 7] was 1 (5) n (%) and the “Cough, Related Adverse Events, All Grades” value [4, 7] was 0 n (%). The “Cough, Related Adverse Events, Grade ≥3” value [4, 7] was 0 n (%), the “Diarrhea, All Adverse Events, All Grades” value [4, 7] was 12 (63) n (%) and the “Diarrhea, All Adverse Events, Grade ≥3” value [4, 7] was 1 (5) n (%). The “Diarrhea, Related Adverse Events, All Grades” value [4, 7] was 7 (37) n (%), the “Diarrhea, Related Adverse Events, Grade ≥3” value [4, 7] was 1 (5) n (%) and the “Dyspnea, All Adverse Events, All Grades” value [4, 7] was 4 (21) n (%). The “Dyspnea, All Adverse Events, Grade ≥3” value [4, 7] was 1 (5) n (%), the “Dyspnea, Related Adverse Events, All Grades” value [4, 7] was 0 n (%) and the “Dyspnea, Related Adverse Events, Grade ≥3” value [4, 7] was 0 n (%). The “Fatigue, All Adverse Events, All Grades” value [4, 7] was 5 (26) n (%), the “Fatigue, All Adverse Events, Grade ≥3” value [4, 7] was 0 n (%) and the “Fatigue, Related Adverse Events, All Grades” value [4, 7] was 0 n (%). For the same compound, the “Fatigue, Related Adverse Events, Grade ≥3” value [4, 7] was 0 n (%), the “Hyperglycemia, All Adverse Events, All Grades” value [4, 7] was 4 (21) n (%) and the “Hyperglycemia, All Adverse Events, Grade ≥3” value [4, 7] was 1 (5) n (%). The “Hyperglycemia, Related Adverse Events, All Grades” value [4, 7] was 4 (21) n (%), the “Hyperglycemia, Related Adverse Events, Grade ≥3” value [4, 7] was 1 (5) n (%) and the “Neutropenia, All Adverse Events, All Grades” value [4, 7] was 5 (26) n (%). The “Neutropenia, All Adverse Events, Grade ≥3” value [4, 7] was 5 (26) n (%), the “Neutropenia, Related Adverse Events, All Grades” value [4, 7] was 4 (21) n (%) and the “Neutropenia, Related Adverse Events, Grade ≥3” value [4, 7] was 4 (21) n (%). The “Pruritus, All Adverse Events, All Grades” value [4, 7] was 4 (21) n (%), the “Pruritus, All Adverse Events, Grade ≥3” value [4, 7] was 1 (5) n (%) and the “Pruritus, Related Adverse Events, All Grades” value [4, 7] was 2 (11) n (%). The “Pruritus, Related Adverse Events, Grade ≥3” value [4, 7] was 0 n (%), the “Pyrexia, All Adverse Events, All Grades” value [4, 7] was 5 (26) n (%) and the “Pyrexia, All Adverse Events, Grade ≥3” value [4, 7] was 1 (5) n (%). For the same compound, the “Pyrexia, Related Adverse Events, All Grades” value [4, 7] was 1 (5) n (%), the “Pyrexia, Related Adverse Events, Grade ≥3” value [4, 7] was 0 n (%) and the “Rash, All Adverse Events, All Grades” value [4, 7] was 4 (21) n (%). For the same compound, the “Rash, All Adverse Events, Grade ≥3” value [4, 7] was 1 (5) n (%), the “Rash, Related Adverse Events, All Grades” value [4, 7] was 3 (16) n (%) and the “Rash, Related Adverse Events, Grade ≥3” value [4, 7] was 1 (5) n (%). The “Patients requiring dose modification due to toxicity” value ([4]; nineteen subjects, total) was 7 (37) n (%), the “Patients requiring dose modification due to toxicity: More than 1 event in the same patient” value ([4]; nineteen subjects, diarrhea, fever/pneumonia, fever/pneumonia/sepsis/ileus/fluid overload) was 1 (5) n (%) and the “Patients requiring dose modification due to toxicity: Fever/hypotension” value [4, 8] was 1 (5) n (%). For the same compound, the “Patients requiring dose modification due to toxicity: Respiratory infection” value [4, 8] was 1 (5) n (%), the IC50 (class I PI3K isoform γ) was 36 nM and the IC50 (class I PI3K isoform β) was 383 nM. For the same compound, the IC50 (mTOR) was > 15000 nM, the “maximum tolerated dose (MTD)” value ([5]; capsule, once daily (QD), 21/7 or continuous daily dosing schedule) was 600 mg and the dose-limiting toxicities ([5]; human, in vivo) was “Grade 3 rash and Grade 3 hypersensitivity”. The “best response Stable Disease, number of patients” value (“best response Stable Disease” below) ([6]; CLL/SLL, n = 5 evaluated, 600 mg capsule once daily, after cycle 2) was 5^b, the “best response Stable Disease” value ([6]; Follicular Lymphoma, n = 2 evaluated, 600 mg capsule once daily) was 2^ and the “best response Progressive Disease, number of patients” value [6, 9] was 1. For the same compound, the “best response Stable Disease” value [6, 9] was 1^e, the “best response Stable Disease” value ([6]; Transformed Lymphoma, n = 1 evaluated) was 1^d and the “best response Complete Response, number of patients” value ([6]; Waldenstrom's Macroglobulinemia, n = 1 evaluated, complete response at cycle 14) was 1^c. The activity in patients ([6]; in vivo) was “active in CLL and low-grade lymphomas”, the IC50 (class I PI3K isoform δ) was 23 nM and the effect as monotherapy (PI3K pathway; human, in vivo) was “primarily anti-proliferative, not pro-apoptotic”. The “PI3K pathway activation in surrogate tissue (PBMC, hair follicle, skin) and tumor tissue” value (PI3K pathway; once daily, patients with solid tumors) was “inhibited PI3K pathway activation” and the “PI3K and ERK pathway inhibition” value (PI3K pathway; well-tolerated doses) was “robust PI3K and ERK pathway inhibition”.
